Results as given in the NIST ThermoML archive (doi:10.1021/acs.jced.6b00396).
± gives the expanded uncertainty stated by the source.

Test: xn = mol fraction of the nth substance listed
Conditions: Gas, isochoric method

C=C(F)C(F)(F)F [2,3,3,3-tetrafluoro-1-propene] + CCC
Conditions | specific volume [m3/kg]
268.15 K, 333 kPa, x2 = 0.709 | 0.095 ± 0.01
273.15 K, 340.4 kPa, x2 = 0.709 | 0.095 ± 0.01
278.15 K, 347.7 kPa, x2 = 0.709 | 0.095 ± 0.01
278.15 K, 366.9 kPa, x2 = 0.505 | 0.072 ± 0.01
283.15 K, 354.8 kPa, x2 = 0.709 | 0.095 ± 0.01
283.15 K, 374.9 kPa, x2 = 0.505 | 0.072 ± 0.01
288.13 K, 614.2 kPa, x2 = 0.611 | 0.047 ± 0.01
288.15 K, 382.8 kPa, x2 = 0.505 | 0.072 ± 0.01
288.16 K, 362 kPa, x2 = 0.709 | 0.095 ± 0.01
288.16 K, 449 kPa, x2 = 0.23 | 0.048 ± 0.01
293.15 K, 369.3 kPa, x2 = 0.709 | 0.095 ± 0.01
293.15 K, 390.7 kPa, x2 = 0.505 | 0.072 ± 0.01
293.15 K, 459.2 kPa, x2 = 0.23 | 0.048 ± 0.01
293.17 K, 628.3 kPa, x2 = 0.611 | 0.047 ± 0.01
298.15 K, 376.6 kPa, x2 = 0.709 | 0.095 ± 0.01
298.15 K, 398.5 kPa, x2 = 0.505 | 0.072 ± 0.01
298.15 K, 470.2 kPa, x2 = 0.23 | 0.048 ± 0.01
298.15 K, 642.2 kPa, x2 = 0.611 | 0.047 ± 0.01
298.15 K, 807.3 kPa, x2 = 0.839 | 0.047 ± 0.01
303.15 K, 383.9 kPa, x2 = 0.709 | 0.095 ± 0.01
303.15 K, 406.7 kPa, x2 = 0.505 | 0.072 ± 0.01
303.15 K, 479.7 kPa, x2 = 0.23 | 0.048 ± 0.01
303.15 K, 656.1 kPa, x2 = 0.611 | 0.047 ± 0.01
303.15 K, 825.7 kPa, x2 = 0.839 | 0.047 ± 0.01
308.15 K, 391 kPa, x2 = 0.709 | 0.095 ± 0.01
308.15 K, 414.4 kPa, x2 = 0.505 | 0.072 ± 0.01
308.15 K, 489.4 kPa, x2 = 0.23 | 0.048 ± 0.01
308.15 K, 669.8 kPa, x2 = 0.611 | 0.047 ± 0.01
308.15 K, 844 kPa, x2 = 0.839 | 0.047 ± 0.01
313.15 K, 398.2 kPa, x2 = 0.709 | 0.095 ± 0.01
313.15 K, 422.1 kPa, x2 = 0.505 | 0.072 ± 0.01
313.15 K, 499.1 kPa, x2 = 0.23 | 0.048 ± 0.01
313.15 K, 683.5 kPa, x2 = 0.611 | 0.047 ± 0.01
313.15 K, 862.2 kPa, x2 = 0.839 | 0.047 ± 0.01
318.15 K, 405.3 kPa, x2 = 0.709 | 0.095 ± 0.01
318.15 K, 429.8 kPa, x2 = 0.505 | 0.072 ± 0.01
318.15 K, 508.7 kPa, x2 = 0.23 | 0.048 ± 0.01
318.15 K, 697.1 kPa, x2 = 0.611 | 0.047 ± 0.01
318.15 K, 880.3 kPa, x2 = 0.839 | 0.047 ± 0.01
323.15 K, 412.4 kPa, x2 = 0.709 | 0.095 ± 0.01
323.15 K, 437.5 kPa, x2 = 0.505 | 0.072 ± 0.01
323.15 K, 518.3 kPa, x2 = 0.23 | 0.048 ± 0.01
323.15 K, 710.9 kPa, x2 = 0.611 | 0.047 ± 0.01
323.15 K, 898.3 kPa, x2 = 0.839 | 0.047 ± 0.01
328.15 K, 419.5 kPa, x2 = 0.709 | 0.095 ± 0.01
328.15 K, 445.3 kPa, x2 = 0.505 | 0.072 ± 0.01
328.15 K, 527.8 kPa, x2 = 0.23 | 0.048 ± 0.01
328.15 K, 724.4 kPa, x2 = 0.611 | 0.047 ± 0.01
328.15 K, 916.2 kPa, x2 = 0.839 | 0.047 ± 0.01
333.15 K, 426.6 kPa, x2 = 0.709 | 0.095 ± 0.01
333.15 K, 452.9 kPa, x2 = 0.505 | 0.072 ± 0.01
333.15 K, 537.3 kPa, x2 = 0.23 | 0.048 ± 0.01
333.15 K, 737.9 kPa, x2 = 0.611 | 0.047 ± 0.01
333.15 K, 934 kPa, x2 = 0.839 | 0.047 ± 0.01
338.15 K, 433.8 kPa, x2 = 0.709 | 0.095 ± 0.01
338.15 K, 460.5 kPa, x2 = 0.505 | 0.072 ± 0.01
338.15 K, 546.7 kPa, x2 = 0.23 | 0.048 ± 0.01
338.15 K, 751.3 kPa, x2 = 0.611 | 0.047 ± 0.01
338.15 K, 951.8 kPa, x2 = 0.839 | 0.047 ± 0.01
343.15 K, 440.8 kPa, x2 = 0.709 | 0.095 ± 0.01
343.15 K, 468.1 kPa, x2 = 0.505 | 0.072 ± 0.01
343.15 K, 556.2 kPa, x2 = 0.23 | 0.048 ± 0.01
343.15 K, 764.6 kPa, x2 = 0.611 | 0.047 ± 0.01
343.15 K, 969.5 kPa, x2 = 0.839 | 0.047 ± 0.01
348.14 K, 778 kPa, x2 = 0.611 | 0.047 ± 0.01
348.15 K, 447.9 kPa, x2 = 0.709 | 0.095 ± 0.01
348.15 K, 475.6 kPa, x2 = 0.505 | 0.072 ± 0.01
348.15 K, 565.8 kPa, x2 = 0.23 | 0.048 ± 0.01
348.15 K, 987.1 kPa, x2 = 0.839 | 0.047 ± 0.01
353.15 K, 454.9 kPa, x2 = 0.709 | 0.095 ± 0.01
353.15 K, 483.2 kPa, x2 = 0.505 | 0.072 ± 0.01
353.15 K, 575.1 kPa, x2 = 0.23 | 0.048 ± 0.01
353.15 K, 791.3 kPa, x2 = 0.611 | 0.047 ± 0.01
353.15 K, 1004.6 kPa, x2 = 0.839 | 0.047 ± 0.01
358.15 K, 462 kPa, x2 = 0.709 | 0.095 ± 0.01
358.15 K, 490.8 kPa, x2 = 0.505 | 0.072 ± 0.01
358.15 K, 584.5 kPa, x2 = 0.23 | 0.048 ± 0.01
358.15 K, 804.5 kPa, x2 = 0.611 | 0.047 ± 0.01
358.15 K, 1022.2 kPa, x2 = 0.839 | 0.047 ± 0.01
363.15 K, 469 kPa, x2 = 0.709 | 0.095 ± 0.01
363.15 K, 498.3 kPa, x2 = 0.505 | 0.072 ± 0.01
363.15 K, 593.8 kPa, x2 = 0.23 | 0.048 ± 0.01
363.15 K, 817.7 kPa, x2 = 0.611 | 0.047 ± 0.01
363.16 K, 1039.6 kPa, x2 = 0.839 | 0.047 ± 0.01

F/C=C(\F)C(F)(F)F [(Z)-1,2,3,3,3-pentafluoro-1-propene] + CCC
Conditions | specific volume [m3/kg]
303.15 K, 459.8 kPa, x2 = 0.855 | 0.09 ± 0.01
303.15 K, 722.5 kPa, x2 = 0.593 | 0.038 ± 0.01
308.15 K, 412.6 kPa, x2 = 0.516 | 0.067 ± 0.01
308.15 K, 468.5 kPa, x2 = 0.855 | 0.09 ± 0.01
308.15 K, 491.5 kPa, x2 = 0.225 | 0.042 ± 0.01
308.15 K, 738.6 kPa, x2 = 0.593 | 0.038 ± 0.01
308.15 K, 946.2 kPa, x2 = 0.69 | 0.032 ± 0.01
313.15 K, 420.3 kPa, x2 = 0.516 | 0.067 ± 0.01
313.15 K, 477.3 kPa, x2 = 0.855 | 0.09 ± 0.01
313.15 K, 501.4 kPa, x2 = 0.225 | 0.042 ± 0.01
313.15 K, 754.6 kPa, x2 = 0.593 | 0.038 ± 0.01
313.15 K, 968.3 kPa, x2 = 0.69 | 0.032 ± 0.01
318.15 K, 428 kPa, x2 = 0.516 | 0.067 ± 0.01
318.15 K, 486 kPa, x2 = 0.855 | 0.09 ± 0.01
318.15 K, 511.5 kPa, x2 = 0.225 | 0.042 ± 0.01
318.15 K, 770.3 kPa, x2 = 0.593 | 0.038 ± 0.01
318.15 K, 990.1 kPa, x2 = 0.69 | 0.032 ± 0.01
323.15 K, 435.7 kPa, x2 = 0.516 | 0.067 ± 0.01
323.15 K, 494.7 kPa, x2 = 0.855 | 0.09 ± 0.01
323.15 K, 521.2 kPa, x2 = 0.225 | 0.042 ± 0.01
323.15 K, 786.1 kPa, x2 = 0.593 | 0.038 ± 0.01
323.15 K, 1011.5 kPa, x2 = 0.69 | 0.032 ± 0.01
328.15 K, 443.4 kPa, x2 = 0.516 | 0.067 ± 0.01
328.15 K, 503.4 kPa, x2 = 0.855 | 0.09 ± 0.01
328.15 K, 531.1 kPa, x2 = 0.225 | 0.042 ± 0.01
328.15 K, 801.7 kPa, x2 = 0.593 | 0.038 ± 0.01
328.15 K, 1033 kPa, x2 = 0.69 | 0.032 ± 0.01
333.15 K, 451 kPa, x2 = 0.516 | 0.067 ± 0.01
333.15 K, 512.1 kPa, x2 = 0.855 | 0.09 ± 0.01
333.15 K, 540.8 kPa, x2 = 0.225 | 0.042 ± 0.01
333.15 K, 817.3 kPa, x2 = 0.593 | 0.038 ± 0.01
333.15 K, 1054.4 kPa, x2 = 0.69 | 0.032 ± 0.01
338.15 K, 458.7 kPa, x2 = 0.516 | 0.067 ± 0.01
338.15 K, 520.9 kPa, x2 = 0.855 | 0.09 ± 0.01
338.15 K, 550.6 kPa, x2 = 0.225 | 0.042 ± 0.01
338.15 K, 832.7 kPa, x2 = 0.593 | 0.038 ± 0.01
338.15 K, 1075.7 kPa, x2 = 0.69 | 0.032 ± 0.01
343.15 K, 466.6 kPa, x2 = 0.516 | 0.067 ± 0.01
343.15 K, 529.5 kPa, x2 = 0.855 | 0.09 ± 0.01
343.15 K, 560.3 kPa, x2 = 0.225 | 0.042 ± 0.01
343.15 K, 848.1 kPa, x2 = 0.593 | 0.038 ± 0.01
343.15 K, 1096.9 kPa, x2 = 0.69 | 0.032 ± 0.01
348.15 K, 474.1 kPa, x2 = 0.516 | 0.067 ± 0.01
348.15 K, 538.1 kPa, x2 = 0.855 | 0.09 ± 0.01
348.15 K, 570 kPa, x2 = 0.225 | 0.042 ± 0.01
348.15 K, 863.4 kPa, x2 = 0.593 | 0.038 ± 0.01
348.15 K, 1118 kPa, x2 = 0.69 | 0.032 ± 0.01
353.15 K, 481.7 kPa, x2 = 0.516 | 0.067 ± 0.01
353.15 K, 546.7 kPa, x2 = 0.855 | 0.09 ± 0.01
353.15 K, 580.1 kPa, x2 = 0.225 | 0.042 ± 0.01
353.15 K, 878.7 kPa, x2 = 0.593 | 0.038 ± 0.01
353.15 K, 1139.2 kPa, x2 = 0.69 | 0.032 ± 0.01
358.15 K, 489.3 kPa, x2 = 0.516 | 0.067 ± 0.01
358.15 K, 555.3 kPa, x2 = 0.855 | 0.09 ± 0.01
358.15 K, 589.7 kPa, x2 = 0.225 | 0.042 ± 0.01
358.15 K, 893.9 kPa, x2 = 0.593 | 0.038 ± 0.01
358.15 K, 1160 kPa, x2 = 0.69 | 0.032 ± 0.01
363.15 K, 496.8 kPa, x2 = 0.516 | 0.067 ± 0.01
363.15 K, 563.9 kPa, x2 = 0.855 | 0.09 ± 0.01
363.15 K, 909 kPa, x2 = 0.593 | 0.038 ± 0.01
363.15 K, 1180.9 kPa, x2 = 0.69 | 0.032 ± 0.01
363.16 K, 599.3 kPa, x2 = 0.225 | 0.042 ± 0.01
